The values below come from patent US8598217B2, “Imidazole derivatives and their use as modulators of cyclin dependent kinases” (Astex Therapeutics Ltd., priority 2009, dated 2013).

The term IC50 denotes the concentration at which inhibition is half-maximal.

The first assay deals with CDK4/cyclin D1 (Homo sapiens (Human), UniProt P11802). Nature of the assay: CDK4/cyclin D1 enzymatic activity assay (Protocol A, Lance TR-FRET). Format: biochemical. The note with it: CDK4/cyclin D1, 175 nM pRb152, 3 μM ATP, 60 min, room temperature; read-out: IC50 against CDK4 kinase. Here is the method: A 384-well microtiter Lance TR-FRET (time-resolved-fluorescence energy transfer) endpoint assay was used for CDK4/cyclin D1 kinase activity measurements. The same assay was used for IC50 determination of small molecule inhibitors. In general, the kinase reactions were carried out in 30 μL volumes in the reaction solution containing the following: 2 μL compound (in 20% DMSO), 18 uL CDK4/cyclin D1 in Assay Buffer (50 mM HEPES, pH 7.5, 5 mM MgCl2, 2 mM MnCl2, 1 mM DTT, 0.05% BSA, 0.02% Tween-20), 10 μL of the mixture of pRb152 and ATP. The final reaction mixture contains compound (inhibitor) with the concentration varying from […], 2% DMSO, 0.3 nM CDK4/cyclin D1, 175 nM pRb152, and 3 μM ATP (Amersham Pharmacia, Cat. No. 27-2056-01). All reactions were run at room temperature in 384-well white flat-bottom OptiPlates (Perkin Elmer, Cat. No. 6007290) for 60 min then were quenched by the addition of 10 μL of 120 mM EDTA. The signals were captured by the addition of 40 μL of the Detection Solution containing the following: Detection Buffer (50 mM HEPES, pH 7.5, 30 mM EDTA, 0.1% Triton x-100, 0.05% BSA), 70 ng/mL anti-phospho-pRb(S780) (Cell Signaling Technology, Cat. No. 9307S), 1 nM Lance Eu-W1024-Rabbit anti-IgG (Perkin Elmer, Cat. No. AD0082), and 20 nM SureLight™ Allophycocyanin-Streptavidin (Perkin Elmer, Cat. No. CR130-100). The resulted solutions were incubated at room temperature for 2 hours before read on the Evision Multilabel Reader (Perkin Elmer, Envision 2102-0010). Note: IC50<0.005 nM or IC50>10 μM indicates the true IC50 is out of detection range.
CDK4/cyclin D1, sequence (P11802 whole entry): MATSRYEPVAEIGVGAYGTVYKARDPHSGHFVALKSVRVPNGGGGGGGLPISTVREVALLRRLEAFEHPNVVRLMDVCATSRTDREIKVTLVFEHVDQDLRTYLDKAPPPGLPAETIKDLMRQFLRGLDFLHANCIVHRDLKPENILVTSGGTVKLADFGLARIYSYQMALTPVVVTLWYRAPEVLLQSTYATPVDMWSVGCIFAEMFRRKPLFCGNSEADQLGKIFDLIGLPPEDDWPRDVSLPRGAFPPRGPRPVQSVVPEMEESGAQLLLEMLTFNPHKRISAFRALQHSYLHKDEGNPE
CDK4/cyclin D1, sequence (P24385 whole entry partner): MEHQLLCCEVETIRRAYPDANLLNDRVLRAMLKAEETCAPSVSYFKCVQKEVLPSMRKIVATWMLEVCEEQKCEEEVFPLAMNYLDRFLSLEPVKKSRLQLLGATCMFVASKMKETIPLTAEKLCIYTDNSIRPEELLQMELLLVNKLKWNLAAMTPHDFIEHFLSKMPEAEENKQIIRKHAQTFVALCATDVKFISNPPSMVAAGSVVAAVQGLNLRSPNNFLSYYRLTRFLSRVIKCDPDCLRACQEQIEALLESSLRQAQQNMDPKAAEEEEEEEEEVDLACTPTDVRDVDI
CDK4/cyclin D1 recombinant protein used in the enzymatic activity assay was prepared by coexpressing pDEST10-CDK4 (N-terminal His6) and pFastBacDual-GST-hCyclinD1 viruses in Sf21 cells. The overexpressed protein was purified by Ni-NTA affinity pull down to >80% pure by Sizing HPLC.
In general terms: TR-FRET usually uses a lanthanide donor and a delayed reading to cut background.
For the compound `N#Cc1ccc(C(=O)c2nc3ccc(N4CCNCC4)nc3[nH]2)cc1-c1cncc2ccccc12` [Example 166, 2-Isoquinolin-4-yl-4-(5-piperazin-1-yl-3H-imidazo[4,5-b]pyridine-2-carbonyl)-benzonitrile], the 50% inhibitory concentration (IC50) stood at 8 nM.

In the case of `Cc1nn(C)c(C)c1-c1cc(C(=O)c2nc3ccc(N4CCC(N(C)C)CC4)nc3[nH]2)ccc1C#N` [Example 173, 4-[5-(4-Dimethylamino-piperidin-1-yl)-3H-imidazo[4,5-b]pyridine-2-carbonyl]-2-(1,3,5-trimethyl-1H-pyrazol-4-yl)-benzonitrile], the 50% inhibitory concentration (IC50) amounted to 12 nM.

With `O=C(c1ccnc(-c2cncc3ccccc23)c1)c1nc2ccc(S(=O)(=O)N3CCNCC3)cc2[nH]1` [Example 182, (2-Isoquinolin-4-yl-pyridin-4-yl)-[6-(piperazine-1-sulfonyl)-1H-benzoimidazol-2-yl]-methanone], the 50% inhibitory concentration (IC50) came to 77 nM.

In the case of `CN1CCC(NC(=O)c2ccc3nc(C(=O)c4ccnc(-c5cncc6ccccc56)c4)[nH]c3c2)CC1` [Example 99, 2-(2-Isoquinolin-4-yl-pyridine-4-carbonyl)-3H-benzoimidazole-5-carboxylic acid (1-methyl-piperidin-4-yl)-amide], the half-maximal inhibitory concentration (IC50) worked out at 26 nM.

The same assay, now with this note: CDK4/cyclin D1, 175 nM pRb152, 3 μM ATP; bound stated; read-out: IC50 values against CDK4.
For `CCNCc1cncc(-c2cc(C(=O)c3nc4cc(OC)c(OC)cc4[nH]3)ccc2C#N)c1` [Example 101, 4-(5,6-Dimethoxy-1H-benzoimidazole-2-carbonyl)-2-(5-ethylaminomethyl-pyridin-3-yl)-benzonitrile], the IC50 was under 10000 nM.

For `Cc1nn(C)c(C)c1-c1cc(C(=O)c2nc3ccc(N4CCNC(C)(C)C4=O)nc3[nH]2)ccc1C#N` [Example 209, 4-[5-(3,3-Dimethyl-2-oxo-piperazin-1-yl)-3H-imidazo[4,5-b]pyridine-2-carbonyl]-2-(1,3,5-trimethyl-1H-pyrazol-4-yl)-benzonitrile], the IC50 was under 10000 nM.

For `Cc1cc(F)ncc1-c1cc(C(=O)c2nc3ccc(N4CCC(N(C)C)CC4)cc3[nH]2)ccn1` [Example 119, [6-(4-Dimethylamino-piperidin-1-yl)-1H-benzoimidazol-2-yl]-(6′-fluoro-4′-methyl-[2,3′]bipyridinyl-4-yl)-methanone], the half-inhibitory concentration (IC50) is under 10000 nM.

For `COc1ccc(F)c(F)c1-c1cc(C(=O)c2nc3c(CN(C)C)cccc3[nH]2)ccn1` [Example 79B, [2-(2,3-Difluoro-6-methoxy-phenyl)-pyridin-4-yl]-(4-dimethylaminomethyl-1H-benzoimidazol-2-yl)-methanone], the concentration for half-maximal inhibition (IC50) is under 10000 nM.

With `CN1CCC(NC(=O)c2ccc3nc(C(=O)c4ccnc(-c5cncc6ccccc56)c4)[nH]c3c2)CC1` [Example 99, 2-(2-Isoquinolin-4-yl-pyridine-4-carbonyl)-3H-benzoimidazole-5-carboxylic acid (1-methyl-piperidin-4-yl)-amide], the concentration for half-maximal inhibition (IC50) was under 10000 nM.
